The target in experiment [1] is T1, PD-L1 (Homo sapiens, UniProt Q9NZQ7).
T1 construct: determine if they can specifically dimerize the extracellular domains of PD-L1
The experiment can be described thus: PD-L1/PD-L1 dimerization biochemical protein-protein interaction assay (ALPHA). The conditions noted are these: 0.5 nM His tagged PD-L1 and 0.5 nM FLAG tagged PD-L1; compound induced dimerization; read-out: AC50 PDL1 Dimer 1 nM. On the procedure: PD-L1/PD-L1 Dimerization Biochemical Protein-Protein Interaction Assay
Compounds were tested in biochemical protein-protein interaction assays to determine if they can specifically dimerize the extracellular domains of PD-L1. Dimerization of the proteins (His-tagged PD-L1 and FLAG-tagged PD-L1) is measured using a bead based Amplified Luminescent Proximity Homogeneous Assay (ALPHA) platform. […] Assays are performed in 25 mM Hepes (pH 7.4), 150 mM NaCl, 3.4 mM EDTA, 0.005% Tween 20, and 0.01% BSA. Final protein concentration in the assays were 0.5 nM (His tagged PD-L1) and 0.5 nM (FLAG tagged PD-L1). After an assay reaction time of 2 hours at 25° C., 20 μg/mL (final assay concentration) ALPHA assay acceptor beads (anti-His coated) were added and incubated for 60 minutes at 25° C. Binding was measured following a final 60 minute incubation with 40 μg/mL (final assay concentration) ALPHA assay donor beads (anti-FLAG coated). AC50 values were calculated from the fit of the dose-response curves to a four-parameter equation (Table 4).

Experiment [2] concerns the target T2, PD-1/PD-L1 (Homo sapiens, UniProt Q9NZQ7). The experiment can be described thus: PD-1/PD-L1 biochemical protein-protein interaction assay (ALPHA). It is filed as binding. The note with it: 0.3 nM His tagged PD-L1, 2.5 nM biotinylated Fc-PD-1; 60 minutes at 25° C.; read-out: IC50 PD-L1-PD1. The method, then:
PD-1/PD-L1 & CTLA/CD80 Biochemical Protein-Protein Interaction Assay
Compounds were tested in biochemical protein-protein interaction assays to determine if they can specifically block the interaction between the extracellular domains of PD-1/PD-L1 or CTLA/CD80. Binding of the protein pairs is measured using a bead based Amplified Luminescent Proximity Homogeneous Assay (ALPHA) platform. Binding of each protein pair results in proximity of the donor and acceptor beads which leads to an increase in ALPHA signal. Disruption of the protein-protein interaction with a test compound results in a decrease in ALPHA signal. Assays are performed in 25 mM Hepes (pH 7.4), 150 mM NaCl, 3.4 mM EDTA, 0.005% Tween 20, and 0.01% BSA. Final protein concentration in the assays were 0.3 nM (His tagged PD-L1), 2.5 nM (biotinylated Fc-PD-1), 1 nM (His tagged CTLA4) and 1 nM (biotinylated CD80). After an assay reaction time of 60 minutes at 25° C., binding was measured with addition of 20 μg/mL ALPHA assay acceptor beads (anti-His coated) and 20 µg/mL ALPHA assay donor beads (streptavidin coated). IC50 values were calculated from the fit of the dose-response curves to a four-parameter equation. Representative data are shown below in Table 3.
Target sequence in this assay (Q9NZQ7 19-238 limits assumed): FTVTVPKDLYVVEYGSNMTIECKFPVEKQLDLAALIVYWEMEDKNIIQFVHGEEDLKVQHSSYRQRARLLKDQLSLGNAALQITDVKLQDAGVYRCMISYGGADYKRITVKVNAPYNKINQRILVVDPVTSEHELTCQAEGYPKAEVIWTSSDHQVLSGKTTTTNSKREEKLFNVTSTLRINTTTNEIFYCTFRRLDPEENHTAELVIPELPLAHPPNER

The target of experiment [3] is T2, PD-1/PD-L1. Briefly: PD-1/PD-L1 NFAT reporter assay (co-culture of aAPC-PD-L1 CHO cells and Jurkat cells overexpressing PD-1, NFAT luciferase). The class given is cell-based. Also noted: expressed in transfected cells; host or cells: CHO cells (aAPC-PD-L1) co-cultured with Jurkat cells overexpressing PD-1. The conditions noted are these: co-culture incubated for 6 hrs at 37° C.; luciferase under NFAT control. On the procedure: PD-1/PD-L1 NFAT Reporter Assay
Compounds were tested in a functional co-culture reporter assay in which TCR-mediated NFAT activity is inhibited by the engagement of PD-1 with PD-L1. […] CHO cells expressing surface-bound anti-CD3 antibodies and PD-L1 (artificial antigen presenting cells, aAPC-PD-L1) were first seeded overnight. Jurkat cells overexpressing PD-1 and expressing a luciferase construct under NFAT control are diluted in RPMI assay medium (RPMI 1640 with 2% FBS), mixed with compounds, and immediately seeded on the monolayer of aAPC-PD-L1. The co-culture is then incubated for 6 hrs at 37° C. Luciferase activity is assessed by adding the ONE-Glo reagent and measuring luminescence with a plate reader. EC50 values are calculated from the fit of the dose-response curves to a four-parameter equation (Table 4).
Target sequence in this assay (Q9NZQ7 19-290): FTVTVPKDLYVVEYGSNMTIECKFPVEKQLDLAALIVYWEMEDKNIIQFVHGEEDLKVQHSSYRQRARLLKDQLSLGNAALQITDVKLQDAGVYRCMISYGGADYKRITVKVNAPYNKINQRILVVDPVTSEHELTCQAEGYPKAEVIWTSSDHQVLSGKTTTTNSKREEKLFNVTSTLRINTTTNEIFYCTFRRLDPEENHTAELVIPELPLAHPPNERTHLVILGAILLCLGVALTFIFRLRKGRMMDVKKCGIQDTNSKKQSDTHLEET

T1 sequence (Q9NZQ7 19-238 limits assumed): as the sequence (Q9NZQ7 19-238 limits assumed) above
T1 sequence (Q9NZQ7 19-238 limits assumed): as above

As to `C[C@](CO)(NCc1cc(Cl)c(OCc2cccc(-c3cccc(-c4ccc5c(c4)CNCC5)c3Cl)c2Cl)nc1OCc1cc(C#N)cc(C#N)c1)C(=O)O` [Compound 27], the AC50 in experiment [1] worked out at 0.0306 µM. In addition, the IC50 in experiment [2] is 0.000312 µM. In addition, the EC50 in experiment [3] was determined as 0.155 µM.

Turning to `C[C@@](CO)(NCc1cc(Cl)c(OCc2cccc(-c3cccc(-c4ccc5c(c4)CNCC5)c3Cl)c2Cl)nc1OCc1cc(C#N)cc(C#N)c1)C(=O)O` [Compound 28], the AC50 in experiment [1] was 0.0397 µM. The IC50 in experiment [2] was found to be 0.000367 µM. In experiment [3], this compound showed an EC50 of 0.161 µM.

As to `C[C@](CO)(NCc1cc(Cl)c(OCc2cccc(-c3cccc(-c4ccc5c(c4)CNCC5)c3Cl)c2Cl)nc1OCc1cncc(C#N)c1)C(=O)O` [Compound 29], in experiment [1], the AC50 worked out at 0.0315 µM. Also, in experiment [2], the IC50 was determined as 0.000368 µM. It took 0.2 µM to reach a half-maximal effect in experiment [3] (EC50).

In the case of `COc1nc(-c2cccc(-c3cccc(-c4nc5n(n4)CCNC5)c3Cl)c2Cl)ccc1CNC[C@@H]1CCC(=O)N1` [Compound 30], the AC50 in experiment [1] was found to be 0.69 µM. Further, in experiment [2], the IC50 worked out at 0.000247 µM. This compound yielded an EC50 in experiment [3] of 0.148 µM.

As for `COc1nc(-c2cccc(-c3cccc(-c4nc5c(s4)CNCC5)c3Cl)c2Cl)ccc1CNCCO` [Compound 31], in experiment [1], the AC50 came to 0.314 µM. Moreover, the IC50 in experiment [2] came to 0.000431 µM. This compound also returned an EC50 in experiment [3] of 0.674 µM.

In the case of `COc1nc(-c2cccc(-c3cccc(-c4cc5c(s4)CCNC5)c3Cl)c2Cl)ccc1CN1CC2(CCC(=O)N2)C1` [Compound 32], the AC50 in experiment [1] was determined as 0.181 µM. Further, in experiment [2], the IC50 worked out at 0.00113 µM. Moreover, in experiment [3], the EC50 came out at 0.288 µM.

Take `COc1nc(-c2cccc(-c3cccc(-c4cc5c(s4)CCNC5)c3Cl)c2Cl)ccc1CNC[C@@H]1CCC(=O)N1` [Compound 33]: the AC50 in experiment [1] turned out to be 0.145 µM. Further, the IC50 in experiment [2] came out at 0.00104 µM. Also, the midpoint of the response in experiment [3], the EC50, lay at 0.17 µM.

Take `COc1nc(-c2cccc(-c3cccc(-c4cc5c(s4)CNCC5)c3Cl)c2Cl)ccc1CNC[C@@H]1CCC(=O)N1` [Compound 34]: the AC50 in experiment [1] was found to be 0.174 µM. Moreover, in experiment [2], the IC50 stood at 0.00113 µM. In experiment [3], the EC50 was 0.163 µM.

As to `COc1nc(-c2cccc(-c3cccc(-c4nc5c(s4)CNCC5)c3Cl)c2Cl)ccc1CNC[C@@H]1CCC(=O)N1` [Compound 35], the AC50 in experiment [1] amounted to 0.281 µM. For the same compound, the IC50 in experiment [2] was 0.000814 µM. For the same compound, the EC50 in experiment [3] was found to be 0.105 µM.

Regarding `COc1nc(-c2cccc(-c3cccc(-c4nc5c(s4)CCNC5)c3Cl)c2Cl)ccc1CNC[C@@H]1CCC(=O)N1` [Compound 36], the AC50 in experiment [1] was 0.256 µM. Also, in experiment [2], the IC50 came out at 0.000588 µM. Besides, in experiment [3], the EC50 was 0.142 µM.

Values taken from patent publication US11236085B2, “PD-1/PD-L1 inhibitors” (Gilead Sciences, Inc., priority 2018, dated 2022).
